# Tested on: mRNA for lanosterol synthetase in the mouse preputial gland
# Conditions: gonadectomized male mice, short-term treatment, Affymetrix, effect visible at 18, 24 and 96 hours
# Experimental: The expression of the genes was analyzed on an Affymetrix station (microfluidic model; hybridization oven; scanner; computer) following the protocols provided by the company. Briefly, the total RNA isolated from the tissues is transcribed to cDNA. From the double-stranded cDNA, a cRNA labeled with biotin is synthesized using T7 polymerase and a precursor NTP conjugated to biotin. The cRNAs are then fragmented to small sized fragments. All the molecular biology steps are checked using the Agilent “Lab on a chip” system in order to confirm the good efficiencies of the enzymatic reactions. The Affymetrix chip is hybridized with the biotinylated cRNA, rinsed and then fluorescence labeled using a fluorophore conjugated to streptavidin. After washings, the chip is scanned and the results are calculated using the MAS5 software provided by Affymetrix. An expression value is obtained for each gene as well as the indication of the significance of the value obtained. […]
# The gene expression was analyzed using the Affymetrix technology described above (FIG. 1A) and the results were then confirmed by the real-time PCR technique (FIG. 1B).
# B. Male mice were gonadectomized and were then treated with the vehicle or DHT. […] The RNA was isolated and the expression of the genes was analyzed by the Affymetrix technique. […]
smiles,measurement,value
"C[C@]12CCC(=O)C[C@@H]1CC[C@@H]1[C@@H]2CC[C@]2(C)[C@@H](O)CC[C@@H]12 [DHT, Dihydrotestosterone]",level of expression of the mRNA for lanosterol synthetase,induced
